# Laboratory results taken from patent US7094809B2, “Method of treating subject infected with Neisseria gonorrhea” (Northeastern Ohio Universities College of Medicine, priority 2000, dated 2006).
# What was measured:
# [1] = tested on: HSV-1; assay: HSV-1 plaque assay, infected Vero cells, moi 1 (Example 3); type: cell-based
# Description: Cultures of African green monkey kidney cells (Vero) cells, obtained from the American Type Culture Collection, Rockville, Md. were grown to confluence in Medium 199 supplemented with 5% fetal bovine serum, 0.075% NaHCO3, and 50 μg/ml gentamycin sulfate in 25 cm^2 tissue culture flasks. Cells were infected with HSV-1 at a multiplicity of infection (moi) of one and incubated at room temperature for one hour to allow for virus attachment to and penetration of the cell. Under these conditions, approximately half of the cells are infected with virus. Thereafter, the cultures were rinsed three time with media and incubated in medium containing 50 μM or 75 μM 4, 4′-dihydroxytolan prepared in 0.2% dimethyl-sulfoxide (DMSO). Controls were treated identically, but were incubated without the dihyroxylated tolan. For purposes of comparison, HSV cell were also inoculated in the presence of 52.5 μM 4,4′-dihydroxystilbene. Due to the higher cell toxicity of the stilbene, cells were not incubated in the presence of 75 μM dihydroxystilbene.
# Upon addition of the medium to the cultures and at 24 hours time periods thereafter, i.e., 0 hours, 24 hours, 48 hours, and 72 hours after addition of the drug, cells and medium were frozen at −70° C. Samples were then thawed, sonicated and titrated on Vero cells to determine the number of plaque forming units (pfu's) of virus produced by each culture.
# [2] = tested on: HSV-1; assay: HSV-1 plaque assay, time of drug addition, Vero cells, moi 10 (Example 4); type: cell-based
# Description: Vero cell cultures were infected with HSV-1 as described above in Example 3 except that the cells were infected with virus at an moi of 10. Under these conditions nearly all of the cells are infected with virus during the initial one hour incubation period. Following removal of unattached virus, the virally-infected cultures were incubated in control medium lacking a hydroxylated tolan or medium to which 105 μM 4,4′-dihydroxytolan had been added at 1, 3, 6, or 9 hours after removal of the unattached virus. At 24 hours after infection, the number of pfu's present in the cells and medium of untreated and hydroxylated tolan-treated cultures was determined.
# [3] = tested on: HSV-1; assay: Direct inactivation of HSV-1 inoculum, residual pfu by plaque assay; type: cell-based; conditions: 105 μM, room temperature, 1 to 60 minutes, data not shown
# Description: To determine whether hydroxylated tolans block formation of infectious herpes virus particles by directly inactivating the virus, a standard inoculum of HSV-1 was mixed with 105 μM 4,4′-dihydroxytolan in medium, with 0.2% DMSO in medium, or with media alone and placed at room temperature. The number of residual pfu's present at 1, 10, 30, and 60 minutes after addition of each respective solution to the virus was determined by plaque assay.
# [4] = tested on: HSV-1; assay: Reversibility of inhibition of HSV replication, Vero cells, moi 1 (Example 5); type: cell-based; conditions: 105 μM
# Description: Vero cells were grown to confluence and infected with HSV-1 at an moi of 1 and then incubated in media lacking a hydroxylated tolan (control cultures) or in media containing 105 μM 4,4′-dihydroxytolan. One set of infected cells was maintained in the dihydroxylatedtolan for a period of 72 hours. In another set of infected cells the dihydroxytolan-containing media was replaced with media lacking a hydroxylated tolan at 24 hours. In another set of cells the tolan-containing media was replaced with media lacking the hydroxylated tolan at 48 hours after infection. The number of infectious HSV particles produced by each set of infected cells was determined by plaque assay.
# [5] = tested on: Vero cells; assay: Cell viability studies, uninfected Vero cells; type: cell-based, African green monkey; conditions: 105 μM, 24 hours
# Description: Cell viability studies confirmed that treatment of uninfected Vero cells with 105 μM 4,4′-dihydroxytolan for 24 hours was not toxic.
# [6] = tested on: ICP-4; assay: Western blot of ICP-4 in HSV-1 infected Vero cells; type: cell-based; conditions: 105 μM, 24 hours
# Description: (§1) ICP-4 and ICP-27 are immediate-early regulatory proteins of HSV-1 that are required for efficient replication of this virus. To determine whether ICP-4 or ICP-27 production is altered by treatment with a hydroxylated tolan, separate cultures of Vero cells were infected with HSV-1 at an moi of 1 and incubated in control medium or medium containing 105 μM 4,4′-dihydroxytolan for 24 hours. Infected cells were scraped from the flask, collected by centrifugation, and resuspended in cold tris-buffered saline, pelleted by centrifugation, and the cell pellet frozen at −70° C. Proteins were extracted from the thawed pellets, separated by 6–15% SDS-PAGE, and assayed on a Western blot by reacting with mouse monoclonal antibody to ICP-4 or ICP-27 from Goodwin Institute for Cancer Research Inc., FL.
# [7] = tested on: ICP-27; assay: Western blot of ICP-27 in HSV-1 infected Vero cells; type: cell-based; conditions: 105 μM, 24 hours
# Description: as §1
# [8] = tested on: Vero cells; assay: MTT colorimetric cell toxicity assay; type: cell-based, African green monkey
# Description: Cell toxicity of the tolans 4,4′-dihydroxytolan (“Tolan-5”), 3,4′,5-trihydroxytolan (“Tolan-10”) and 4-hydroxy-4′-trifluoromethyltolan (“Tolan-11”) was determined using an MTT assay. In this assay, cells are exposed to MTT, 3-(4,5-dimethylthiazol-2-yl)-2,5-diphenyltetrazolium bromide, which is taken into the cells and reduced by mitochondrial dehydrogenase to a purple formazan, a large molecule which is unable to pass through intact cell membranes, and therefore accumulates in healthy cells. The ability of cells to reduce MTT is an indication of mitochondrial integrity and activity, which may be interpreted as a measure of viability. Solubilization of the cells results in the liberation of the product which can readily be detected spectrophotometrically.
# Various concentrations of Tolan-5, Tolan-10 and Tolan-11 were added to 96 well tissue culture plates that had been seeded with Vero cells. The plates were then incubated at 37° C. in 5% CO2/95% air for 24, 48 and 72 hours. At the end of each time point, 50 μl of MTT (1 mg/ml) was added to the tissue culture plates which were then incubated for an additional four hours. At the end of that time, dimethyl sulfoxide (DMSO) was added to dissolve the cells and formazan, and the plates were read spectrophotometrically at 540 nm. […] Presented in Table I below are the toxicity results for Tolan-5, Tolan-10, and Tolan-11 measured at 24, 48 and 72 hours of treatment.
# [9] = tested on: HSV-1; assay: Inhibition of HSV-1 replication in vitro, plaque assay (Example 9); type: cell-based
# Description: Tissue culture cells were infected with HSV-1 and incubated in solutions containing Tolan-5, Tolan-10 and Tolan-11. The concentrations used ranged from one-half to three-quarters of the calculated CD50 for the respective tolan at 48 hours of treatment. Specifically, Vero cells were infected with HSV-1 at a multiplicity of infection of one for one hour. At the end of that time, the cultures were rinsed with media and fresh media containing various concentration of the respective tolan were added. Infected control cultures were incubated in media lacking hydroxylated tolan. At 1, 24, 48, and 72 hours after infection, samples were frozen at −70° C. until assayed for new virus production. Virus production was quantified by the plaque assay for each time point of infection. The results, which are expressed as plaque forming units per milliliter (pfu/ml).
compound,measurement,setting,value
"Oc1ccc(C#Cc2ccc(O)cc2)cc1 [Tolan-5, 4,4′-dihydroxytolan]",reduction of new virus production,[1]; 50 μM,95%
same,infectious HSV particles in cultures,"[1]; 75 μM continuously, by 72 hours",virtually undetectable
same,inhibition at 75 µM,"[1]; Human alphaherpesvirus 1, 75 μM, 24 hours, Vero cells, moi 1, read-out: inhibition of formation of infectious virus particles",> 99%
same,inhibition of production of virus,"[2]; 105 μM added 6 hours after infection, pfu at 24 hours, moi 10",approximately 90%
same,reduction of production of virus,"[2]; 105 μM added one hour after infection, pfu at 24 hours, moi 10",more than 99%
same,inhibition at 105 µM,"[2]; Human alphaherpesvirus 1, Vero, 105 μM added 3 hours after infection, pfu at 24 hours, moi 10, read-out: inhibition of production of virus",~90%
same,formation of infectious virus particles,[2]; added 9 hours after infection,not inhibited
same,direct inactivation of HSV,[3],did not directly inactivate HSV
same,reversibility of inhibitory effect on HSV replication,[4]; drug removed at 24 or 48 hours,reversible
same,cell killing on prolonged exposure,"[4]; prolonged period of time, mammalian cells",does not kill the cells
same,toxicity to uninfected Vero cells,[5],not toxic
same,synthesis of ICP-4,[6],significantly reduced
same,synthesis of ICP-27,[7],significantly reduced
same,CD50,[8]; 48 hours,106 µM
same,CD50,[8]; 72 hours,84.0 µM
same,"inhibition of virus, comparison of concentrations",[9]; 75 μm versus 50 μm,more inhibitory to the virus at 75 μm that at 50 μm
same,HSV-1 production,"[9]; Vero cells, moi 1, up to 72 hours",inhibited HSV-1 production
